# Results reported in patent US11261174B2, “Pyrazole O-linked carbamoyl cyclohexyl acids as LPA antagonists” (BRISTOL-MYERS SQUIBB COMPANY, priority 2017, dated 2022).
# pIC50: −log10 of the molar value.
# Target: LPA1 (Homo sapiens, UniProt Q92633)
# Assay: LPA1 functional antagonist assay (LPA-induced calcium flux)
# Format: cell-based
# Parameters: expressed in transfected cells; host or cells: Chinese hamster ovary (CHO) cells
# Details: CHO cells overexpressing human LPA1; calcium flux induced by 10 nM LPA; read-out: hLPA1 IC50
# Method: The effectiveness of compounds of the present invention as LPA1 inhibitors can be determined in an LPA1 functional antagonist assay as follows:
# Chinese hamster ovary cells overexpressing human LPA1 were plated overnight (15,000 cells/well) in poly-D-lysine coated 384-well microplates (Greiner bio-one, Cat #781946) in DMEM/F12 medium (Gibco, Cat #11039). Following overnight culture, cells were loaded with calcium indicator dye (AAT Bioquest Inc, Cat #34601) for 30 minutes at 37° C. The cells were then equilibrated to room temperature for 30 minutes before the assay. Test compounds solubilized in DMSO were transferred to 384 well non-binding surface plates (Corning, Cat #3575) using the Labcyte Echo acoustic dispense and diluted with assay buffer [1×HBSS with calcium/magnesium (Gibco Cat #14025-092), 20 mM HEPES (Gibco Cat #15630-080) and 0.1% fatty acid free BSA (Sigma Cat # A9205)] to a final concentration of 0.5% DMSO. Diluted compounds were added to the cells by FDSS6000 (Hamamatsu) at final concentrations ranging from 0.08 nM to 5 μM. and were then incubated for 20 min at room temperature at which time LPA (Avanti Polar Lipids Cat #857130C) was added at final concentrations of 10 nM to stimulate the cells. […] IC50 values were determined by fitting data to a 4-parameter logistic equation (GraphPad Prism, San Diego Calif.).
# Chain of LPA1 (Q92633 whole entry): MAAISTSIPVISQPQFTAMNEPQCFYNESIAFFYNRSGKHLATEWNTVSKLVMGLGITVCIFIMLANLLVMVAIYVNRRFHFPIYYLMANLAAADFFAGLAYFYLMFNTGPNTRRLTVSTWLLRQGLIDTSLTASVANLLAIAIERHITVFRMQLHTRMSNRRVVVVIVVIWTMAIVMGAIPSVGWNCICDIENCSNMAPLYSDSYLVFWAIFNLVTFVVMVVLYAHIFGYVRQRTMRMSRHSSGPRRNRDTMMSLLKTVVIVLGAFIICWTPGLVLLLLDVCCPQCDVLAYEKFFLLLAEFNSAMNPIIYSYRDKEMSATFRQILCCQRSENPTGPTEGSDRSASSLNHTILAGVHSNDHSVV
row,pIC50,SMILES
1,5.75,CN(CC1CC1)C(=O)OCc1c(-c2ccc(O[C@@H]3CCC[C@@H](C(=O)O)C3)cc2)cnn1C (racemic) [Example 41]
2,5.69,CC(C)CCN(C)C(=O)OCc1c(-c2ccc(O[C@@H]3CCC[C@@H](C(=O)O)C3)cc2)cnn1C [Example 37]
3,8.22,CC(C)CCN(C)C(=O)OCc1c(-c2ccc(O[C@H]3CCC[C@H](C(=O)O)C3)cc2)cnn1C [Example 38]
4,6.38,CN(C(=O)OCc1c(-c2ccc(O[C@@H]3CCC[C@@H](C(=O)O)C3)cc2)cnn1C)C1CCC1 [Example 42]
5,7.72,Cc1cc(-c2cnn(C)c2COC(=O)N(C)C2CCC2)ccc1O[C@H]1CCC[C@H](C(=O)O)C1 [Example 45]
6,7.57,Cc1cc(-c2cnn(C)c2COC(=O)N(C)C(C)C2CCC2)ccc1O[C@H]1CCC[C@H](C(=O)O)C1 (stereo partly shown) [Example 46]
7,7.57,Cc1cc(-c2cnn(C)c2COC(=O)N(C)C(C)C2CC2)ccc1O[C@H]1CCC[C@H](C(=O)O)C1 (stereo partly shown) [Example 47]
8,8.10,Cc1cc(-c2cnn(C)c2COC(=O)N(C)C2CCCC2)ccc1O[C@H]1CCC[C@H](C(=O)O)C1 [Example 48]
9,6.54,CC(C)CN(C)C(=O)OCc1c(-c2ccc(O[C@H]3CCC[C@H](C(=O)O)C3)cc2)cnn1C [Example 49]
10,7.15,CN(C(=O)OCc1c(-c2ccc(O[C@H]3CCC[C@H](C(=O)O)C3)cc2)cnn1C)C1CCC1 [Example 50]
11,6.40,CN(CC1CC1)C(=O)OCc1c(-c2ccc(O[C@H]3CCC[C@H](C(=O)O)C3)cc2)cnn1C [Example 51]
12,7.28,CN(CC1CCC1)C(=O)OCc1c(-c2ccc(O[C@H]3CCC[C@H](C(=O)O)C3)cc2)cnn1C [Example 52]
13,7.07,CCC(C)N(C)C(=O)OCc1c(-c2ccc(O[C@H]3CCC[C@H](C(=O)O)C3)cc2)cnn1C (stereo partly shown) [Example 53]
14,7.06,CCCC(C)N(C)C(=O)OCc1c(-c2ccc(O[C@H]3CCC[C@H](C(=O)O)C3)cc2)cnn1C (stereo partly shown) [Example 54]
15,7.66,CC(C1CCC1)N(C)C(=O)OCc1c(-c2ccc(O[C@H]3CCC[C@H](C(=O)O)C3)cc2)cnn1C (stereo partly shown) [Example 55]
16,7.74,CN(C(=O)OCc1c(-c2cnc(O[C@H]3CCC[C@H](C(=O)O)C3)cn2)cnn1C)C1CCCC1 [Example 56]

# More lines, now with the values behind:
row,SMILES,pIC50
1,CCCCN(C)C(=O)OCc1c(-c2cnc(O[C@H]3CCC[C@H](C(=O)O)C3)c(C)n2)cnn1C (racemic) [Example 7],7.40
2,Cc1nc(-c2cnn(C)c2COC(=O)N(C)Cc2ccccc2)ccc1O[C@@H]1CCC[C@@H](C(=O)O)C1 (racemic) [Example 27],7.62
3,CCCC(C)(C)N(C)C(=O)OCc1c(-c2ccc(O[C@@H]3CCC[C@@H](C(=O)O)C3)c(C)n2)cnn1C (racemic) [Example 28],6.85
4,CCCC(C)(C)N(C)C(=O)OCc1c(-c2ccc(O[C@@H]3CCC[C@@H](C(=O)O)C3)cn2)cnn1C (racemic) [Example 31],7.29
5,CN(CCC1CC1)C(=O)OCc1c(-c2ccc(O[C@@H]3CCC[C@@H](C(=O)O)C3)cn2)cnn1C (racemic) [Example 32],7.27
6,CC(C)CCN(C)C(=O)OCc1c(-c2ccc(O[C@@H]3CCC[C@@H](C(=O)O)C3)cn2)cnn1C (racemic) [Example 34],7.48
7,"C[C@H](C1CC1)N(C)C(=O)OCc1c(-c2ccc(O[C@H]3CCC[C@H](C(=O)O)C3)cn2)cnn1C [Example 1, (1S,3S)-3-((6-(5-(((((R)-1-cyclopropylethyl)(methyl)carbamoyl)oxy)methyl)-1-methyl-1H-pyrazol-4-yl)pyridin-3-yl)oxy)cyclohexane-1-carboxylic Acid]",7.17
8,CC(C1CCC1)N(C)C(=O)OCc1c(-c2ccc(O[C@H]3CCCC(C(=O)O)C3)cn2)cnn1C (stereo partly shown) [Example 2],6.87
9,CN(CC1CCC1)C(=O)OCc1c(-c2ccc(O[C@H]3CCC[C@H](C(=O)O)C3)cn2)cnn1C [Example 3],7.32
10,CN(CC1CC1)C(=O)OCc1c(-c2ccc(O[C@H]3CCC[C@H](C(=O)O)C3)cn2)cnn1C [Example 4],6.78
11,Cc1nc(-c2cnn(C)c2COC(=O)N(C)C2CCCC2)ccc1O[C@H]1CCC[C@H](C(=O)O)C1 [Example 5],7.52
12,Cc1nc(-c2cnn(C)c2COC(=O)N(C)[C@H](C)C2CC2)cnc1O[C@H]1CCC[C@H](C(=O)O)C1 [Example 6],7.03
13,Cc1nc(-c2cnn(C)c2COC(=O)N(C)Cc2ccccc2)cnc1O[C@H]1CCC[C@H](C(=O)O)C1 [Example 8],7.47
14,Cc1nc(-c2cnn(C)c2COC(=O)N(C)C2CCCC2)cnc1O[C@H]1CCC[C@H](C(=O)O)C1 [Example 9],7.47
15,CC[C@H](C)CN(C)C(=O)OCc1c(-c2ccc(O[C@H]3CCC[C@H](C(=O)O)C3)c(C)n2)cnn1C [Example 11],7.14
16,CCCN(C)C(=O)OCc1c(-c2ccc(O[C@H]3CCC[C@H](C(=O)O)C3)c(C)n2)cnn1C [Example 12],7.27
17,Cc1nc(-c2cnn(C)c2COC(=O)N(C)CC2CCCC2)ccc1O[C@H]1CCC[C@H](C(=O)O)C1 [Example 13],6.61

row,SMILES,pIC50
1,Cc1nc(-c2cnn(C)c2COC(=O)N(C)Cc2cccc(Cl)c2)ccc1O[C@H]1CCC[C@H](C(=O)O)C1 [Example 14],5.95
2,Cc1nc(-c2cnn(C)c2COC(=O)N(C)Cc2ccccc2)ccc1O[C@H]1CCC[C@H](C(=O)O)C1 [Example 15],8.00
3,Cc1nc(-c2cnn(C)c2COC(=O)N(C)Cc2cccc(F)c2)ccc1O[C@H]1CCC[C@H](C(=O)O)C1 [Example 16],8.10
4,Cc1nc(-c2cnn(C)c2COC(=O)N(C)C2(C3CC3)CC2)ccc1O[C@H]1CCC[C@H](C(=O)O)C1 [Example 17],7.37
5,CCCC1(N(C)C(=O)OCc2c(-c3ccc(O[C@H]4CCC[C@H](C(=O)O)C4)c(C)n3)cnn2C)CC1 [Example 18],7.26
6,Cc1nc(-c2cnn(C)c2COC(=O)N(C)CCC2CC2)ccc1O[C@H]1CCC[C@H](C(=O)O)C1 [Example 19],8.05
7,CCCCN(C)C(=O)OCc1c(-c2ccc(O[C@H]3CCC[C@H](C(=O)O)C3)c(C)n2)cnn1C [Example 20],7.80
8,Cc1nc(-c2cnn(C)c2COC(=O)N(C)CC2CCC2)ccc1O[C@H]1CCC[C@H](C(=O)O)C1 [Example 21],8.00
9,Cc1nc(-c2cnn(C)c2COC(=O)N(C)C(C2CC2)C2CC2)ccc1O[C@H]1CCC[C@H](C(=O)O)C1 [Example 23],7.55
10,Cc1nc(-c2cnn(C)c2COC(=O)N(C)CCC(C)C)ccc1O[C@H]1CCC[C@H](C(=O)O)C1 [Example 24],8.30
11,Cc1nc(-c2cnn(C)c2COC(=O)N(C)CC2CC2)ccc1O[C@H]1CCC[C@H](C(=O)O)C1 [Example 25],7.70
12,CCC(CC)N(C)C(=O)OCc1c(-c2ccc(O[C@H]3CCC[C@H](C(=O)O)C3)cn2)cnn1C [Example 26],7.52
13,CCCCN(C)C(=O)OCc1c(-c2ccc(O[C@H]3CCC[C@H](C(=O)O)C3)c(C)c2)cnn1C [Example 30],8.30
14,CC(C)CCN(C)C(=O)OCc1c(-c2ccc(O[C@H]3CCC[C@H](C(=O)O)C3)cn2)cnn1C [Example 33],7.64
15,CCCCN(C)C(=O)OCc1c(-c2ccc(O[C@H]3CCC[C@H](C(=O)O)C3)cn2)cnn1C [Example 35],8.05
16,CN(Cc1ccccc1)C(=O)OCc1c(-c2ccc(O[C@@H]3CCC[C@@H](C(=O)O)C3)cc2)cnn1C [Example 36],6.42
